Reference: the NIST ThermoML archive (doi:10.1016/j.jct.2007.02.012)
± gives the expanded uncertainty stated by the source.

Legend:
[1] = refractive index (Na D-line) (dimensionless); conditions: 293.15 K; 101.33 kPa; Liquid; Standard Abbe refractometry
[2] = Boiling temperature at pressure P; conditions: Liquid, Distillation
[3] = 101.33 kPa, Liquid

| refractive index [1] | Boiling temperature at pressure P ([2]; 101.33 kPa) | mass density ([3]; 293.15 K) | Boiling temperature at pressure P ([2]; 1.733 kPa) | mass density ([3]; 298.15 K) | Compound |
| --- | --- | --- | --- | --- | --- |
| 1.41969 ± 0.00082 | 196.1 ± 0.2 °C | 1119.13 ± 1.5 kg/m3 |  |  | COC(=O)CCC(=O)OC [dimethyl 1,4-butanedioate] |
| 1.42825 ± 0.00075 |  | 1061.72 ± 0.61 kg/m3 | 115 ± 1 °C |  | COC(=O)CCCCC(=O)OC [dimethyl 1,6-hexanedioate] |
| 1.42454 ± 0.00075 | 214.2 ± 0.2 °C | 1087.67 ± 0.68 kg/m3 |  |  | COC(=O)CCCC(=O)OC [dimethyl pentanedioate] |
| 1.3808 ± 0.00075 | 141.4 ± 0.2 °C |  |  | 988 ± 0.5 kg/m3 | CCC(=O)O [propanoic acid] |
